The values below come from ChEMBL document CHEMBL3991601, “The target landscape of clinical kinase drugs” (Science, 2017).

The structures appear in SMILES notation. Calls of active or inactive are those of the source.

The target in assay [1] is T1, Tyrosine--tRNA ligase, cytoplasmic (Homo sapiens, UniProt P54577).
T1 sequence (P54577 whole entry): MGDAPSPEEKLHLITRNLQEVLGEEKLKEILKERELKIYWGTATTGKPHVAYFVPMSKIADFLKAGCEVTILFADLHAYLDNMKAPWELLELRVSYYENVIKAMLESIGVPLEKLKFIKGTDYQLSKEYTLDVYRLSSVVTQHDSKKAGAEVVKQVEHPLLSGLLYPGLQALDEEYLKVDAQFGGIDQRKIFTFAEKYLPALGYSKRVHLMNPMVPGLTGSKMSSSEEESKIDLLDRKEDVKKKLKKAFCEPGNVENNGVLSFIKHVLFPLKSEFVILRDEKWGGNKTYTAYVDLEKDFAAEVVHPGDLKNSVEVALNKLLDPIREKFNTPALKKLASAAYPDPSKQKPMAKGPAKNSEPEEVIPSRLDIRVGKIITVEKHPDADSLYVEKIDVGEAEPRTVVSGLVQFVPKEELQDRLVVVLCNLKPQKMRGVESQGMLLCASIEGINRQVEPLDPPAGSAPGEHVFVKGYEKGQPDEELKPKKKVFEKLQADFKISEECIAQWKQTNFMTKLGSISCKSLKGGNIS

Assay [2] concerns the target T2, Non-receptor tyrosine-protein kinase TNK1 (Homo sapiens, UniProt Q13470).
T2 sequence (Q13470 whole entry): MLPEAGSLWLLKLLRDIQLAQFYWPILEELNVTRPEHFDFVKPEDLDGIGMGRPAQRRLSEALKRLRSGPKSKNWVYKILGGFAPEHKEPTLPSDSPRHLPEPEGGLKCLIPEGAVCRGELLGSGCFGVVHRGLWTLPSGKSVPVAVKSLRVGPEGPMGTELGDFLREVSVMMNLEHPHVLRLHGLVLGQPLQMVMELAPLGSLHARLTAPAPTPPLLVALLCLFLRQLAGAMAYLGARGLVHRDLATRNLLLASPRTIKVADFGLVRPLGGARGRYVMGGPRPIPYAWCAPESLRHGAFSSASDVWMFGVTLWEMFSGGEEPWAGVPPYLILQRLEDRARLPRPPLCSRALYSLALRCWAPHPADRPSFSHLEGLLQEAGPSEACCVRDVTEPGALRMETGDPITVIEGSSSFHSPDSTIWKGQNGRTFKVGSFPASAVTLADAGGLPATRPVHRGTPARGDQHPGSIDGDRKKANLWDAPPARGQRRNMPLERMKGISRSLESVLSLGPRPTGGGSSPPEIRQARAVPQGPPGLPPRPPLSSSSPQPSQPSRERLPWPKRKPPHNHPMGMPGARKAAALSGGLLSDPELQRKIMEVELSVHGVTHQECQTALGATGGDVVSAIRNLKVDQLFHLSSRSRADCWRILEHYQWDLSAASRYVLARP

The next assay concerns the target T3, Scaffold protein ILK (Homo sapiens, UniProt Q13418).
T3 sequence (Q13418 whole entry): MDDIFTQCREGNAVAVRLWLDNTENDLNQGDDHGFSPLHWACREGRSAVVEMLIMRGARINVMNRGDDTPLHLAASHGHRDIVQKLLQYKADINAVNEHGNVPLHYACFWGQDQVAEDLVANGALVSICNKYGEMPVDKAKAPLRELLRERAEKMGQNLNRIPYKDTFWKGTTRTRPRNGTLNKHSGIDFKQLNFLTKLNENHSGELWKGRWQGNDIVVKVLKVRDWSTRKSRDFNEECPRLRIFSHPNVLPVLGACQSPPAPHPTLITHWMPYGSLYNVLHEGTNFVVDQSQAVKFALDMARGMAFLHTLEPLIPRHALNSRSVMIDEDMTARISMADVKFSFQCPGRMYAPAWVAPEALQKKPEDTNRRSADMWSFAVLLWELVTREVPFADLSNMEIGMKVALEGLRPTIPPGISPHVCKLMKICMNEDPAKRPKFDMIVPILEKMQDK

The next assay has as its target T4, dCTP pyrophosphatase 1 (Homo sapiens, UniProt Q9H773).
T4 sequence (Q9H773 whole entry): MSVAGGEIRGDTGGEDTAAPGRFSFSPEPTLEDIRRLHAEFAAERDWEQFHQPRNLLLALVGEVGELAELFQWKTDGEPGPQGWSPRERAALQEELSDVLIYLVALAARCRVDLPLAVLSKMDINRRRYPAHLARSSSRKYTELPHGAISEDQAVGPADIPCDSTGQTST

Assay [3] deals with T5, Bifunctional phosphoribosylaminoimidazole carboxylase/phosphoribosylaminoimidazole succinocarboxamide synthetase (Homo sapiens, UniProt P22234).
T5 sequence (P22234 whole entry): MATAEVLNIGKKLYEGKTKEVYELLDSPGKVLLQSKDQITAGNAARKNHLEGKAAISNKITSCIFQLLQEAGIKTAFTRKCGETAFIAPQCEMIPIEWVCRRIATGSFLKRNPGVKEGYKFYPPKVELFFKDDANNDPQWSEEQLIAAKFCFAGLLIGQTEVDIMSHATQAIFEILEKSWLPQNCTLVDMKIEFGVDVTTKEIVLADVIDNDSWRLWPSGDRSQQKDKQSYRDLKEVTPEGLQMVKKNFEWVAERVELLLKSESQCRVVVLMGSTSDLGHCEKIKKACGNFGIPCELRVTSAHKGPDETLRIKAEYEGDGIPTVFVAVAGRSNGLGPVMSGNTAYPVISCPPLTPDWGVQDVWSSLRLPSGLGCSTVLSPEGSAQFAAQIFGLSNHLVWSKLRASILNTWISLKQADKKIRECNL
Further: in the data inactive means no Kd found up to 30 µM.

Consider `C[C@@H](Nc1cc(F)cc(F)c1)c1cc(C(=O)N(C)C)cc2c(=O)cc(N3CCOCC3)oc12` [AZD-8186], for which the Kd (in assay [1]; in assay [2]; on Scaffold protein ILK; on dCTP pyrophosphatase 1; in assay [3]) was > 30 µM (inactive) each time.

Take `COc1cc(OC)c(/C=C/S(=O)(=O)Cc2ccc(OC)c(NCC(=O)O)c2)c(OC)c1` [RIGOSERTIB]: the Kd (in assay [1]; in assay [2]; on Scaffold protein ILK; at dCTP pyrophosphatase 1; in assay [3]) was > 30 µM (inactive) each time.

On to `CC[C@H](Nc1ncnc2[nH]cnc12)c1nc2cccc(F)c2c(=O)n1-c1ccccc1` [IDELALISIB], for which the Kd (in assay [1]; in assay [2]; at Scaffold protein ILK; at dCTP pyrophosphatase 1; in assay [3]) was > 30 µM (inactive) throughout.

In the case of `C[C@@H](c1ccc2nccn2c1)n1nnc2ncc(-c3cnn(C)c3)nc21` [SAVOLITINIB], the Kd (in assay [1]; in assay [2]; at dCTP pyrophosphatase 1; in assay [3]) was > 30 µM (inactive) throughout.

Regarding `CN1N=C(N)c2cn([C@@H]3O[C@H](COP(=O)(O)O)[C@@H](O)[C@H]3O)c3ncnc1c23` [TRICIRIBINE PHOSPHATE], the Kd (in assay [1]; in assay [2]; at dCTP pyrophosphatase 1; in assay [3]) was > 30 µM (inactive) in each case.

In the case of `CNC(=O)CN1CCC(Oc2cc3c(Nc4cccc(Cl)c4F)ncnc3cc2OC)CC1` [SAPITINIB], the Kd (in assay [1]; in assay [2]; at Scaffold protein ILK; at dCTP pyrophosphatase 1; in assay [3]) was > 30 µM (inactive) in each case.

With `O=C(c1ccc(F)c(F)c1Nc1ccc(I)cc1F)N1CC(O)([C@@H]2CCCCN2)C1` [COBIMETINIB], the Kd (in assay [1]; in assay [2]; on Scaffold protein ILK; on dCTP pyrophosphatase 1; in assay [3]) was > 30 µM (inactive) throughout.

Consider `Cc1ccc(S(=O)(=O)Nc2nc3ccccc3nc2Nc2ccc3nsnc3c2)cc1`, for which the Kd (in assay [1]; in assay [2]; at dCTP pyrophosphatase 1; in assay [3]) was > 30 µM (inactive) throughout.

As to `CCS(=O)(=O)N1CC(CC#N)(n2cc(-c3ncnc4[nH]ccc34)cn2)C1` [BARICITINIB], the Kd in assay [1] was > 30 µM (inactive); in assay [2], 0.622 µM; on Scaffold protein ILK, > 30 µM (inactive); at dCTP pyrophosphatase 1 it was > 30 µM (inactive); in assay [3] it was > 30 µM (inactive).

`Cc1nc(N)sc1-c1ccnc(Nc2ccc(N3CCOCC3)cc2)n1` [CYC-116]: the Kd (in assay [1]; in assay [2]; on Scaffold protein ILK; on dCTP pyrophosphatase 1; in assay [3]) was > 30 µM (inactive) each time.

In the case of `Cc1cc(Nc2cc(N3CCN(C)CC3)nc(/C=C/c3ccccc3)n2)n[nH]1` [ENMD-2076], the Kd (in assay [1]; on Scaffold protein ILK; on dCTP pyrophosphatase 1; in assay [3]) was > 30 µM (inactive) throughout.

Turning to `Cc1ccc(NC(=O)c2ccc(CN3CC[C@H](N(C)C)C3)c(C(F)(F)F)c2)cc1Nc1nccc(-c2cncnc2)n1` [BAFETINIB], the Kd (in assay [1]; in assay [2]; at Scaffold protein ILK; at dCTP pyrophosphatase 1; in assay [3]) was > 30 µM (inactive) throughout.

As for `O=C(Nc1cccc(Cl)c1)Nc1ncc(CCNc2ncnc3ccsc23)s1` [SNS-314], the Kd (in assay [1]; in assay [2]; on Scaffold protein ILK; on dCTP pyrophosphatase 1; in assay [3]) was > 30 µM (inactive) throughout.

Consider `Cc1ccc(-n2nc(C(C)(C)C)cc2NC(=O)NCc2cc(F)ccc2Oc2ccc3c(cnn3CCO)c2)cc1` [PEXMETINIB], for which the Kd in assay [1] was > 30 µM (inactive); in assay [2] it was 1.66 µM (active); at Scaffold protein ILK it was > 30 µM (inactive); on dCTP pyrophosphatase 1 it was > 30 µM (inactive); in assay [3], > 30 µM (inactive).

Take `Nc1nc(N)c2nc(-c3cccc(O)c3)c(-c3cccc(O)c3)nc2n1` [TG100-115]: the Kd (in assay [1]; on dCTP pyrophosphatase 1; in assay [3]) was > 30 µM (inactive) each time.

Consider `CN1CCN(c2ccc3nc(-c4c(N)c5c(F)cccc5[nH]c4=O)[nH]c3c2)CC1` [DOVITINIB], for which the Kd (in assay [1]; at Scaffold protein ILK; on dCTP pyrophosphatase 1; in assay [3]) was > 30 µM (inactive) throughout.

Take `CNS(=O)(=O)Nc1nccc(Cc2c(C)c3ccc(Oc4ncccn4)cc3oc2=O)c1F` [AVUTOMETINIB]: the Kd (in assay [1]; in assay [2]; at Scaffold protein ILK; on dCTP pyrophosphatase 1; in assay [3]) was > 30 µM (inactive) each time.

For the molecule `C1=C/COCc2cc(ccc2OCCN2CCCC2)Nc2nccc(n2)-c2cccc(c2)COC/1` [PACRITINIB], the Kd in assay [1] is > 30 µM (inactive); in assay [2], 0.888 µM (active); at dCTP pyrophosphatase 1 it was > 30 µM (inactive); in assay [3], > 30 µM (inactive).

In the case of `CCn1c(-c2nonc2N)nc2c(C#CC(C)(C)O)ncc(OC[C@H]3CCCNC3)c21` [GSK-690693], the Kd was > 30 µM (inactive) in assay [1], > 30 µM (inactive) at Scaffold protein ILK, 0.573 µM (active) on dCTP pyrophosphatase 1 and > 30 µM (inactive) in assay [3].

Regarding `Cc1cn(-c2cc(NC(=O)c3ccc(C)c(Nc4nccc(-c5cccnc5)n4)c3)cc(C(F)(F)F)c2)cn1` [NILOTINIB], the Kd in assay [1] was > 30 µM (inactive); at Scaffold protein ILK, 0.02 µM; at dCTP pyrophosphatase 1, > 30 µM (inactive); in assay [3], > 30 µM (inactive).

With `C=CC(=O)N1CCC(Oc2cc3c(Nc4ccc(Cl)c(Cl)c4F)ncnc3cc2OC)CC1` [POZIOTINIB], the Kd in assay [1] is > 30 µM (inactive); in assay [2], 1.68 µM (active); at dCTP pyrophosphatase 1, > 30 µM (inactive); in assay [3], > 30 µM (inactive).

Turning to `O=c1sn(-c2cccc3ccccc23)c(=O)n1Cc1ccccc1` [TIDEGLUSIB], the Kd (in assay [1]; in assay [2]; at dCTP pyrophosphatase 1; in assay [3]) was > 30 µM (inactive) throughout.
